Reference: PubChem BioAssay AID278 (DTP/NCI, 2004)
Where “and” joins values, the source holds several entries; their conditions need not be identical. Identical values can stand only once. Inconclusive results are not listed.

Tested on: nude mice, A549 intrarenal xenograft, tumor weight change
Experiment: NCI In Vivo Anticancer Drug Screen. Data for tumor model A549 Human Adenocarcinoma of Lung with characteristics of Type II Alveolar Epithelial cells (intrarenal inoculation) in NU/NU BALB/C (nude) mice
Settings: endpoint: mean tumor weight change, higher = larger tumour
Method: The antitumor activity of compounds was measured in mice bearing transplantable tumors. Survival or tumor size were measured and the results are expressed as the measurement made in the treated group (T) divided by the measurement made in the vehicle treated control group (C). The tumor model used in this assay is A549 Human Adenocarcinoma of Lung with characteristics of Type II Alveolar Epithelial cells (intrarenal inoculation) in NU/NU BALB/C (nude) mice

[1] = dose: 200.0 mg/kg/injection, schedule: Q04DX003 (ip), vehicle: saline with Tween-80
[2] = dose: 150.0 mg/kg/injection, schedule: Q04DX003 (ip), vehicle: Klucel (hydroxypropylcellulose) (HPC)
[3] = dose: 300.0 mg/kg/injection, schedule: Q04DX003 (ip), vehicle: Klucel (hydroxypropylcellulose) (HPC)
[4] = dose: 600.0 mg/kg/injection, schedule: Q04DX003 (ip), vehicle: Klucel (hydroxypropylcellulose) (HPC)
[5] = dose: 150.0 mg/kg/injection, schedule: Q04DX003 (ip), vehicle: saline with Tween-80
[6] = dose: 300.0 mg/kg/injection, schedule: Q04DX003 (ip), vehicle: saline with Tween-80
[7] = dose: 600.0 mg/kg/injection, schedule: Q04DX003 (ip), vehicle: saline with Tween-80
[8] = dose: 30.0 mg/kg/injection, schedule: Q04DX003 (ip), vehicle: saline

CC1OC2CC(O)C1(O)C1=C2C(O)=C(C(N)=O)C(=N)C1=O (stereo not drawn)
T/C (dose: 0.63 mg/kg/injection, schedule: Q04DX003 (ip), vehicle: saline + alcohol): 66 % of control
T/C (dose: 1.25 mg/kg/injection, schedule: Q04DX003 (ip), vehicle: saline + alcohol): 48 % of control
T/C (dose: 2.5 mg/kg/injection, schedule: Q04DX003 (ip), vehicle: saline + alcohol): 35 % of control
T/C (dose: 5.0 mg/kg/injection, schedule: Q04DX003 (ip), vehicle: saline + alcohol): 94 % of control

O=C(Nc1cccnc1)c1ccc([N+](=O)[O-])s1
T/C [1]: 38 % of control and 51 % of control

CCOc1cc2c(cc1C(C)c1ccc(OC)cc1)OCO2 (stereo not drawn)
T/C (dose: 54.0 mg/kg/injection, schedule: Q04DX003 (ip), vehicle: distilled water + alcohol): 67 % of control
T/C (dose: 90.0 mg/kg/injection, schedule: Q04DX003 (ip), vehicle: distilled water + alcohol): 48 % of control
T/C (dose: 250.0 mg/kg/injection, schedule: Q04DX003 (ip), vehicle: distilled water + alcohol): 4 % of control

CN(C)c1ccc2c(Nc3ccc(NS(C)(=O)=O)cc3)c3ccc(N(C)C)cc3nc2c1
T/C (dose: 50.0 mg/kg/injection, schedule: Q04DX003 (ip), vehicle: Klucel (hydroxypropylcellulose) (HPC)): 116 % of control
T/C (dose: 100.0 mg/kg/injection, schedule: Q04DX003 (ip), vehicle: Klucel (hydroxypropylcellulose) (HPC)): 39 % of control
T/C (dose: 200.0 mg/kg/injection, schedule: Q04DX003 (ip), vehicle: Klucel (hydroxypropylcellulose) (HPC)): 41 % of control

Cc1ccc2c(c1)n([O-])c1cc(Cl)ccc1[n+]2=O
T/C (dose: 35.0 mg/kg/injection, schedule: Q04DX003 (ip), vehicle: saline with Tween-80): 102 % of control
T/C (dose: 70.0 mg/kg/injection, schedule: Q04DX003 (ip), vehicle: saline with Tween-80): 65 % of control
T/C (dose: 140.0 mg/kg/injection, schedule: Q04DX003 (ip), vehicle: saline with Tween-80): 108 % of control
T/C (dose: 280.0 mg/kg/injection, schedule: Q04DX003 (ip), vehicle: saline with Tween-80): 94 % of control

C=C(Cl)C(=NC(C)(C)C)Nc1ccccc1C
T/C (dose: 10.0 mg/kg/injection, schedule: Q04DX003 (ip), vehicle: Klucel + Tween-80): 73 % of control
T/C (dose: 20.0 mg/kg/injection, schedule: Q04DX003 (ip), vehicle: Klucel + Tween-80): 68 % of control

O=C1CC2(C(=O)N1CN1CCOCC1)c1ccccc1-c1ccccc12
T/C [2]: 36 % of control
T/C (dose: 216.0 mg/kg/injection, schedule: Q04DX003 (ip), vehicle: Klucel (hydroxypropylcellulose) (HPC)): 21 % of control
T/C [3]: 28 % of control
T/C (dose: 360.0 mg/kg/injection, schedule: Q04DX003 (ip), vehicle: Klucel (hydroxypropylcellulose) (HPC)): 23 % of control
T/C [4]: 11 % of control

CN=C(N)c1ccc(N=C(N)c2ccc(C(N)=Nc3ccc(C(N)=NC)cc3)cc2)cc1
T/C (dose: 13.0 mg/kg/injection, schedule: Q06HX010 (ip), vehicle: water): 70 % of control
T/C (dose: 20.0 mg/kg/injection, schedule: Q06HX010 (ip), vehicle: water): 98 % of control

O=C(Nc1cc(Cl)ccc1C(=O)O)c1cccc(C[n+]2ccccc2)c1
T/C [5]: 161 % of control
T/C [6]: 86 % of control
T/C [7]: 20 % of control

CN(C)N=Nc1ccc(C(N)=O)cc1
T/C (dose: 22.5 mg/kg/injection, schedule: Q04DX003 (ip), vehicle: saline with Tween-80): 65 % of control
T/C (dose: 45.0 mg/kg/injection, schedule: Q04DX003 (ip), vehicle: saline with Tween-80): 55 % of control
T/C (dose: 90.0 mg/kg/injection, schedule: Q04DX003 (ip), vehicle: saline with Tween-80): 54 % of control
T/C (dose: 180.0 mg/kg/injection, schedule: Q04DX003 (ip), vehicle: saline with Tween-80): 17 % of control
T/C (dose: 216.0 mg/kg/injection, schedule: Q04DX003 (ip), vehicle: saline with Tween-80): 39 % of control
T/C (dose: 360.0 mg/kg/injection, schedule: Q04DX003 (ip), vehicle: saline with Tween-80): 2 % of control and 15 % of control

Nc1ccn([C@@H](C=O)C[C@@H](C=O)CO)c(=O)n1
T/C (dose: 37.5 mg/kg/injection, schedule: Q04DX003 (ip), vehicle: saline with Tween-80): 42 % of control
T/C (dose: 75.0 mg/kg/injection, schedule: Q04DX003 (ip), vehicle: saline with Tween-80): 245 % of control
T/C [5]: 66 % of control
T/C [6]: 216 % of control and 82 % of control
T/C [7]: 48 % of control
T/C (dose: 1200.0 mg/kg/injection, schedule: Q04DX003 (ip), vehicle: saline with Tween-80): 26 % of control

NC(N)=NS(=O)(=O)c1ccc(NCc2c3ccccc3nc3ccccc23)cc1
T/C [2]: 4 % of control
T/C [3]: 10 % of control
T/C [4]: -10 % of control
T/C (dose: 1200.0 mg/kg/injection, schedule: Q04DX003 (ip), vehicle: Klucel (hydroxypropylcellulose) (HPC)): -7 % of control

CN(Cc1cnc2nc(N)nc(N)c2n1)c1ccc(C(=O)N[C@@H](CCC(=O)O)C(=O)O)cc1
T/C (dose: 27.0 mg/kg/injection, schedule: Q04DX003 (ip), vehicle: sodium bicarbonate): 100 % of control

CCN(CC)CC(C)(C)C(=O)/C=C/c1ccc(/C=C/C(=O)C(C)(C)CN(CC)CC)cc1
T/C (dose: 15.0 mg/kg/injection, schedule: Q04DX003 (ip), vehicle: saline): 84 % of control
T/C [8]: 73 % of control
T/C (dose: 60.0 mg/kg/injection, schedule: Q04DX003 (ip), vehicle: saline): 82 % of control

CC#CCOCC(O)CCl (stereo not drawn)
T/C (dose: 100.0 mg/kg/injection, schedule: Q04DX003 (ip), vehicle: saline): 104 % of control
T/C (dose: 200.0 mg/kg/injection, schedule: Q04DX003 (ip), vehicle: saline): 90 % of control
T/C (dose: 400.0 mg/kg/injection, schedule: Q04DX003 (ip), vehicle: saline): 111 % of control

CCCCCNc1ncnc2c(C)[nH]nc12
T/C (dose: 37.5 mg/kg/injection, schedule: Q04DX003 (ip), vehicle: Klucel (hydroxypropylcellulose) (HPC)): 82 % of control
T/C (dose: 75.0 mg/kg/injection, schedule: Q04DX003 (ip), vehicle: Klucel (hydroxypropylcellulose) (HPC)): 105 % of control
T/C [2]: 100 % of control

CC(CNC(=O)C12CC3CC(CC(C3)C1)C2)NC(=O)C12CC3CC(CC(C3)C1)C2 (stereo not drawn)
T/C (dose: 300.0 mg/kg/injection, schedule: Q04DX003 (ip), vehicle: DMSO): 106 % of control

CNC(=O)/C=C/C1=CN2C(=O)c3ccc(C)c(O)c3NC(OC)C2C1 (stereo not drawn)
T/C (dose: 100.0 micrograms/kg/injection, schedule: Q04DX003 (ip), vehicle: saline): 1 % of control
T/C (dose: 200.0 micrograms/kg/injection, schedule: Q04DX003 (ip), vehicle: saline): 20 % of control
T/C (dose: 400.0 micrograms/kg/injection, schedule: Q04DX003 (ip), vehicle: saline): 29 % of control
T/C (dose: 800.0 micrograms/kg/injection, schedule: Q04DX003 (ip), vehicle: saline): -17 % of control

Cc1cc(O)c2c(c1O)C(=O)C13C(=C2O)C(=O)C2C(O)C1C1C(O)C3C(=O)C3=C(O)c4c(O)cc(C)c(O)c4C(=O)C321 (stereo not drawn)
T/C (dose: 1.0 mg/kg/injection, schedule: Q04DX003 (ip), vehicle: saline with Tween-80): 172 % of control
T/C (dose: 2.0 mg/kg/injection, schedule: Q04DX003 (ip), vehicle: saline with Tween-80): 112 % of control

CCC1(O)C(=O)OCc2c1cc1n(c2=O)Cc2cc3cc4c(cc3nc2-1)OCO4 (stereo not drawn)
T/C (dose: 4.0 mg/kg/injection, schedule: Q04DX003 (ip), vehicle: saline with Tween-80): 6 % of control

CC(=O)NO
T/C (dose: 150.0 mg/kg/injection, schedule: Q04DX003 (ip), vehicle: water): 83 % of control
T/C (dose: 300.0 mg/kg/injection, schedule: Q04DX003 (ip), vehicle: water): 82 % of control
T/C (dose: 600.0 mg/kg/injection, schedule: Q04DX003 (ip), vehicle: water): 109 % of control
T/C (dose: 1200.0 mg/kg/injection, schedule: Q04DX003 (ip), vehicle: water): 66 % of control

O=S(=O)(O)c1cc(N=C=S)ccc1/C=C/c1ccc(N=C=S)cc1S(=O)(=O)O
T/C (dose: 3.75 mg/kg/injection, schedule: Q04DX003 (ip), vehicle: saline): 107 % of control
T/C (dose: 7.5 mg/kg/injection, schedule: Q04DX003 (ip), vehicle: saline): 64 % of control
T/C [8]: 118 % of control

O=C1CNC(=O)N1CN1CCOCC1
T/C [2]: 198 % of control
T/C [3]: 69 % of control

ClC1(Cl)Cc2ccccc21
T/C (dose: 50.0 mg/kg/injection, schedule: Q04DX003 (ip), vehicle: saline with Tween-80): 119 % of control
T/C (dose: 100.0 mg/kg/injection, schedule: Q04DX003 (ip), vehicle: saline with Tween-80): 57 % of control
T/C [1]: 119 % of control
